In EP4707280A1, “1,4-CINEOLE DERIVATIVE AND INTERMEDIATE THEREOF, HERBICIDE CONTAINING SAID DERIVATIVE AS ACTIVE INGREDIENT, METHOD FOR USING HERBICIDE, AND METHOD FOR PREPARING AGROCHEMICAL COMPOSITION” (HOKKO CHEMICAL INDUSTRY CO., LTD., priority 2023, dated 2024):

What was measured:
Format in all cases: in vivo
Echinochloa crus-galli [1] = assay: Test Example 3: herbicidal effect test by soil application in upland field; settings: Echinochloa crus-galli, 120 g per 10 ares, sprayed one day after sowing, 14 days after application, read-out: weed inhibition rate
Method in brief: (§1)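 Weed inhibition (%) was assessed 14 days after treatment, in duplicate per concentration group. Seeds had been mixed into the upper 1 cm of upland alluvial loam, and the soil surface was sprayed one day later with the diluted emulsifiable concentrate at 120 g active ingredient per 10 ares.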

Digitaria ciliaris [2] = assay: as above; settings: Digitaria ciliaris, 120 g per 10 ares, sprayed one day after sowing, 14 days after application, read-out: weed inhibition rate
Method in brief: as §1

[3] = tested on: Echinochloa crus-galli var. formosensis; assay: Test Example 5: herbicidal effect test by soil application in paddy rice (low dose); settings: Echinochloa crus-galli, soil, 336 h; 7.5 g per 10 ares; applied immediately after sowing, flooded pots; 14 days after application; read-out: weed inhibition rate
Method in brief: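 Paddy soil in Wagner pots was fertilized (N:P:K 16:16:16), puddled, sown with 30 seeds per weed species at 0–1 cm, then flooded to ~3 cm in a glass greenhouse. Emulsifiable concentrate diluted in water was dropper-applied into floodwater immediately, at 7.5 g active ingredient per 10 ares; duplicates, scored at 14 days.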

Scirpus juncoides [4] = assay: Test Example 2: herbicidal effect test by application during growth period of paddy rice; settings: Schoenoplectiella juncoides; 120 g per 10 ares; applied seven days after sowing, flooded pots; 14 days after application; read-out: weed inhibition rate
Method in brief: (§2)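 Paddy soil in Wagner pots was puddled with N:P:K 16:16:16 fertilizer, sown with 30 weed seeds per species at 0–1 cm and flooded to about 3 cm. Seven days after sowing, a water-diluted emulsifiable concentrate was dropped onto the water at 120 g active ingredient per 10 ares. Weed inhibition (%) was scored at 14 days, in duplicate.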

[5] = tested on: Echinochloa crus-galli var. formosensis; assay: as above; settings: Echinochloa crus-galli; 120 g per 10 ares; applied seven days after sowing, flooded pots; 14 days after application; read-out: weed inhibition rate
Method in brief: as §2

[6] = tested on: Echinochloa crus-galli var. formosensis; assay: Test Example 6: herbicidal effect test by application during growth period of paddy rice (low dose); settings: Echinochloa crus-galli; 7.5 g per 10 ares; applied seven days after sowing, flooded pots; 14 days after application; read-out: weed inhibition rate
Method in brief: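 Puddled, fertilised paddy soil was sown with 30 seeds per species and flooded to about 3 cm. After 7 days in a glass greenhouse, the diluted emulsifiable concentrate went into the water by dropper at 7.5 g/10 a. Effect scored at 14 days.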

Scirpus juncoides [7] = assay: Test Example 1: herbicidal effect test by soil application in paddy rice; settings: Schoenoplectiella juncoides, soil, 336 h; 120 g active ingredient per 10 ares; applied immediately after sowing, flooded pots; 14 days after application; read-out: weed inhibition rate
Method in brief: (§3)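 Pre-emergence paddy treatment: diluted emulsifiable concentrate applied by dropper at 120 g a.i./10 ares immediately after sowing. Seeds (30 per species, 0–1 cm deep) in fertilized, puddled paddy soil kept under ~3 cm flood in a glass greenhouse.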

[8] = tested on: Echinochloa crus-galli var. formosensis; assay: as above; settings: Echinochloa crus-galli, soil, 336 h; 120 g active ingredient per 10 ares; applied immediately after sowing, flooded pots; 14 days after application; read-out: weed inhibition rate
Method in brief: as §3

Digitaria ciliaris [9] = assay: Test Example 4: herbicidal effect test by stem and leaf treatment in upland field; settings: Digitaria ciliaris; 120 g per 10 ares; sprayed seven days after sowing, upland soil; 14 days after application; read-out: weed inhibition rate
Echinochloa crus-galli [10] = assay: Test Example 8: herbicidal effect test by stem and leaf treatment in upland field (low dose); settings: Echinochloa crus-galli; 7.5 g per 10 ares; sprayed seven days after sowing, upland soil; 14 days after application; read-out: weed inhibition rate
Digitaria ciliaris [11] = assay: as above; settings: Digitaria ciliaris; 7.5 g per 10 ares; sprayed seven days after sowing, upland soil; 14 days after application; read-out: weed inhibition rate
Echinochloa crus-galli [12] = assay: Test Example 7: herbicidal effect test by soil application in upland field (low dose); settings: Echinochloa crus-galli, 7.5 g per 10 ares, sprayed one day after sowing, 14 days after application, read-out: weed inhibition rate
Method in brief: (§4)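 Pre-emergence soil application: upland alluvial loam pots sown with weed seeds mixed into the top 1 cm; one day after sowing, a water-diluted emulsifiable concentrate was sprayed on the soil at 100 L per 10 a, delivering 7.5 g active ingredient per 10 a. Weed inhibition rate (%) scored 14 days after application, duplicate pots.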

Digitaria ciliaris [13] = assay: as above; settings: Digitaria ciliaris, 7.5 g per 10 ares, sprayed one day after sowing, 14 days after application, read-out: weed inhibition rate
Method in brief: as §4

Echinochloa crus-galli [14] = assay: Test Example 4: herbicidal effect test by stem and leaf treatment in upland field; settings: Echinochloa crus-galli; 120 g per 10 ares; sprayed seven days after sowing, upland soil; 14 days after application; read-out: weed inhibition rate

CC(C)C12CC(OCc3ccccc3F)C(C)(CC1I)O2 (stereo not drawn) [1-1421, 2-[(2-fluorophenyl)methoxy]-5-iodo-1-methyl-4-isopropyl-7-oxabicyclo[2.2.1]heptane]
≥ 80%: inhibition at 1200 g/ha (Echinochloa crus-galli [1]) | inhibition at 1200 g/ha (Digitaria ciliaris [2]) | inhibition at 75 g/ha [3] | inhibition at 1200 g/ha (Scirpus juncoides [4]) | inhibition at 1200 g/ha [5] | inhibition at 75 g/ha [6] | pest or weed control at 1200 g/ha (Scirpus juncoides [7]) | pest or weed control at 1200 g/ha [8] | inhibition at 1200 g/ha (Digitaria ciliaris [9]) | inhibition at 75 g/ha (Echinochloa crus-galli [10]) | inhibition at 75 g/ha (Digitaria ciliaris [11]) | inhibition at 75 g/ha (Echinochloa crus-galli [12]) | inhibition at 75 g/ha (Digitaria ciliaris [13]) | inhibition at 1200 g/ha (Echinochloa crus-galli [14])

CC(C)C12CC(OCc3ccccc3Cl)C(C)(CC1I)O2 (stereo not drawn) [1-1424, 5-[(2-chlorophenyl)methoxy]-2-iodo-1-isopropyl-4-methyl-7-oxabicyclo[2.2.1]heptane]
≥ 80%: inhibition at 1200 g/ha (Echinochloa crus-galli [1]) | inhibition at 1200 g/ha (Digitaria ciliaris [2]) | inhibition at 75 g/ha [3] | inhibition at 1200 g/ha (Scirpus juncoides [4]) | inhibition at 1200 g/ha [5] | inhibition at 75 g/ha [6] | pest or weed control at 1200 g/ha (Scirpus juncoides [7]) | pest or weed control at 1200 g/ha [8] | inhibition at 1200 g/ha (Digitaria ciliaris [9]) | inhibition at 75 g/ha (Echinochloa crus-galli [10]) | inhibition at 75 g/ha (Digitaria ciliaris [11]) | inhibition at 75 g/ha (Echinochloa crus-galli [12]) | inhibition at 75 g/ha (Digitaria ciliaris [13]) | inhibition at 1200 g/ha (Echinochloa crus-galli [14])

CC(C)C12CC(OCc3ccccc3Br)C(C)(CC1I)O2 (stereo not drawn) [1-1427, 5-[(2-bromophenyl)methoxy]-2-iodo-1-isopropyl-4-methyl-7-oxabicyclo[2.2.1]heptane]
≥ 80%: inhibition at 1200 g/ha (Echinochloa crus-galli [1]) | inhibition at 1200 g/ha (Digitaria ciliaris [2]) | inhibition at 75 g/ha [3] | inhibition at 1200 g/ha (Scirpus juncoides [4]) | inhibition at 1200 g/ha [5] | inhibition at 75 g/ha [6] | pest or weed control at 1200 g/ha (Scirpus juncoides [7]) | pest or weed control at 1200 g/ha [8] | inhibition at 1200 g/ha (Digitaria ciliaris [9]) | inhibition at 75 g/ha (Echinochloa crus-galli [10]) | inhibition at 75 g/ha (Digitaria ciliaris [11]) | inhibition at 75 g/ha (Echinochloa crus-galli [12]) | inhibition at 75 g/ha (Digitaria ciliaris [13]) | inhibition at 1200 g/ha (Echinochloa crus-galli [14])

CC(C)C12CC(OCc3ccccc3C#N)C(C)(CC1I)O2 (stereo not drawn) [1-1436, 2-[(5-iodo-1-methyl-4-isopropyl-7-oxabicyclo[2.2.1]heptan-2-yl)oxymethyl]benzonitrile]
≥ 80%: inhibition at 1200 g/ha (Echinochloa crus-galli [1]) | inhibition at 1200 g/ha (Digitaria ciliaris [2]) | inhibition at 75 g/ha [3] | inhibition at 1200 g/ha (Scirpus juncoides [4]) | inhibition at 1200 g/ha [5] | inhibition at 75 g/ha [6] | pest or weed control at 1200 g/ha (Scirpus juncoides [7]) | pest or weed control at 1200 g/ha [8] | inhibition at 1200 g/ha (Digitaria ciliaris [9]) | inhibition at 75 g/ha (Echinochloa crus-galli [10]) | inhibition at 75 g/ha (Digitaria ciliaris [11]) | inhibition at 75 g/ha (Echinochloa crus-galli [12]) | inhibition at 75 g/ha (Digitaria ciliaris [13]) | inhibition at 1200 g/ha (Echinochloa crus-galli [14])

Cc1cccc(C)c1COC1CC2(C(C)C)OC1(C)CC2I (stereo not drawn) [1-1445, 5-[(2,6-dimethylphenyl)methoxy]-2-iodo-1-isopropyl-4-methyl-7-oxabicyclo[2.2.1]heptane]
≥ 80%: inhibition at 1200 g/ha (Echinochloa crus-galli [1]) | inhibition at 1200 g/ha (Digitaria ciliaris [2]) | inhibition at 75 g/ha [3] | inhibition at 1200 g/ha (Scirpus juncoides [4]) | inhibition at 1200 g/ha [5] | inhibition at 75 g/ha [6] | pest or weed control at 1200 g/ha (Scirpus juncoides [7]) | pest or weed control at 1200 g/ha [8] | inhibition at 1200 g/ha (Digitaria ciliaris [9]) | inhibition at 75 g/ha (Echinochloa crus-galli [10]) | inhibition at 75 g/ha (Digitaria ciliaris [11]) | inhibition at 75 g/ha (Echinochloa crus-galli [12]) | inhibition at 75 g/ha (Digitaria ciliaris [13]) | inhibition at 1200 g/ha (Echinochloa crus-galli [14])

CC(C)C12CC(OCc3c(F)cccc3F)C(C)(CC1I)O2 (stereo not drawn) [1-1446, 5-[(2,6-difluorophenyl)methoxy]-2-iodo-1-isopropyl-4-methyl-7-oxabicyclo[2.2.1]heptane]
≥ 80%: inhibition at 1200 g/ha (Echinochloa crus-galli [1]) | inhibition at 1200 g/ha (Digitaria ciliaris [2]) | inhibition at 75 g/ha [3] | inhibition at 1200 g/ha (Scirpus juncoides [4]) | inhibition at 1200 g/ha [5] | inhibition at 75 g/ha [6] | pest or weed control at 1200 g/ha (Scirpus juncoides [7]) | pest or weed control at 1200 g/ha [8] | inhibition at 1200 g/ha (Digitaria ciliaris [9]) | inhibition at 75 g/ha (Echinochloa crus-galli [10]) | inhibition at 75 g/ha (Digitaria ciliaris [11]) | inhibition at 75 g/ha (Echinochloa crus-galli [12]) | inhibition at 75 g/ha (Digitaria ciliaris [13]) | inhibition at 1200 g/ha (Echinochloa crus-galli [14])
